In patent publication US11944623B2, “Modulators of Kv3 channels to treat pain” (Autifony Therapeutics Limited, priority 2015, dated 2024):

Columns and labels:
Human Kv3.4 channels = target: T1, Human Kv3.4 channels (Homo sapiens, UniProt Q03721); assay: Kv3.4 Assay 2 (QPatch, HEK293); format: cell-based; parameters: dose or concentration left out as unconfirmed; conditions: for reduction in peak Kv3.4 current: peak currents did not recover to baseline on washout
T1 construct: expressed in transfected cells
T1 sequence (Q03721 1-635): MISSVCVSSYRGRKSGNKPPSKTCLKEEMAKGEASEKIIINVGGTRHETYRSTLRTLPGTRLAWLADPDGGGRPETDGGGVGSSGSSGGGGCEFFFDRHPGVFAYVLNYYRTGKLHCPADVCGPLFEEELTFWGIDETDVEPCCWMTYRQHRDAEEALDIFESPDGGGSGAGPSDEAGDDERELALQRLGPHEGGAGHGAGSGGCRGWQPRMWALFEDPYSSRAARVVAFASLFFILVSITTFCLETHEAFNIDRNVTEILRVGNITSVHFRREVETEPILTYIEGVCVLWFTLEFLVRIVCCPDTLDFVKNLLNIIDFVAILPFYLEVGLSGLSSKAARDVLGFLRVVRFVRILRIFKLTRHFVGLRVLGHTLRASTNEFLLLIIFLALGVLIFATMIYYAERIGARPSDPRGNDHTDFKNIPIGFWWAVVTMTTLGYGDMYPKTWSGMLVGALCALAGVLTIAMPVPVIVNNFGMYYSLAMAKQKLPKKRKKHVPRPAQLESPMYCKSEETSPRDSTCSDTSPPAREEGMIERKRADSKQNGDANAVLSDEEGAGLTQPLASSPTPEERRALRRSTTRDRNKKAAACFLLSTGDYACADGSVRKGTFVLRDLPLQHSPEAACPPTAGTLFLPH
Method: Human Kv3.4 channels were stably expressed in a HEK293 cell line. Cells were used within 1-4 hours of cell preparation and internal and external physiological solutions were freshly prepared prior to the assay. Electrophysiological recordings were made using an automated patch clamp platform (QPatch, Sophion Biosciences). The extracellular solution contained 145 mM NaCl, 4 mM KCl, 2 mM CaCl2, 1 mM MgCl2, 10 mM HEPES and 10 mM glucose; the pH was adjusted to 7.4 with NaOH, and the osmolarity measured as 313 mOsm/L. A low potassium intracellular solution was used which contained 135.6 mM CsCl, 5.37 mM CaCl2, 1.75 mM MgCl2, 10 mM EGTA, 15.6 mM KOH, 4 mM Na2ATP and 10 mM HEPES; the pH was adjusted to 7.2 with CsOH, and the osmolarity measured as 303 mOsm/L.
The voltage dependence of inactivation of the homomeric hKv3.4 channels was tested using a protocol that consisted of a series of two square voltage pulses. The pulse one (P1=pre-pulse) was 1000 ms long and was immediately followed by a second pulse (P2=test pulse) which was 500 ms long. Pulse one varied between the holding potential of −60 mV to +40 mV and pulse two stepped from a holding potential of −60 to +40 mV before returning to the holding potential of −60 mV.
Steady-state voltage-activation and -inactivation curves were fitted with single Boltzmann function in which G/Gmax was obtained from normalized current amplitude and the V50 represent the half-activation or inactivation voltage.
The time constants of the inactivation phase of the hKv3.4 currents were derived from a mono (τ) or a double (τ1 and τ2) standard exponential fit to peak trace pulse from −80 mV to +60 mV.
The time-course of effect of the compounds against the hKv3.4 potassium channel was measured with repetitive voltage pulses from a holding potential of −60 mV, with pulses of 500 ms duration every 5 s to +40 mV.
One concentration (10 uM) of the test compounds was assessed during the activation, inactivation and peak pulse protocols. The protocol was applied with addition of physiological solution (control period), followed by 10 uM of the testing compound and a 10 mM of the standard blocker TEA.
Data were normalized using the baseline current control values as top of the curve (maximum current; 1.0) and the zero potassium current as the bottom of the curve (minimum current; 0.0).
Series resistance and quality of seals were monitored during the experiments. Analysis was performed using the Sophion QPatch Assay Software (version 5.2).
Stock solutions (10 mM) of the standard blockers TEA was prepared in fresh physiological solution prior to testing on the e-phys automated platform. The test compounds were prepared in 10 mM DMSO stock and then diluted 1 in 1000 in physiological solution.

[1] = target: T2, Human Kv7.2/7.3 heteromeric channels (Homo sapiens, UniProt O43525+O43526); assay: Kv7.2/7.3 patch clamp assay; format: cell-based; conditions: 10 µM concentration (N=3)
T2 construct: expressed in transfected cells
Method: Human Kv7.2/7.3 heteromeric channels were stably expressed in a HEK293 cell line. Cells were plated onto 13 mm plastic dishes and incubated for 1-3 days in a 5% CO2 incubator for conventional whole-cell patch clamp experiments. Electrophysiological recordings were made using an automated patch clamp platform (QPatch, Sophion Biosciences). Internal (pipette) solution contained (in mM): K-Aspartate (130), KCl (15), MgCl2 (5.5), Na2ATP (5), K2PCr (5), EGTA (20), HEPES (10), pH 7.25 with KOH, was used to study Kv7.2/7.3 currents. Cells were superfused at room temperature with a standard physiological solution containing (mM): NaCl (140), KCl (4), CaCl2 (2), MgCl2 (1), glucose (10), HEPES (10), pH 7.35 with NaOH.
Patch pipettes were pulled from borosilicate glass and had tip resistances of 2-4 MW when filled with the above solution. Capacitative transients were compensated electronically from the recordings. However, the voltage drop across the series resistance and the liquid junction potential were not compensated. The series resistance was generally less than 10 MG (n=5 cells), with a mean cell capacity of 25±5 pF.
In some cases, manual patch clamp was carried out using an Axon 200B amplifier (Axon Instruments). The software program pClamp (version 10) from Axon Instruments was used to stimulate and record electrical activity. […]

potentiation of the observed Kv3.4 current (Human Kv3.4 channels)	shift in the voltage-dependence of activation of the Kv3.4 currents (Human Kv3.4 channels)	reduction in peak Kv3.4 current (Human Kv3.4 channels) [%]	Compound	effect on Kv7.2/7.3-mediated currents [1]
did not potentiate	did not produce any notable shift	40±5	Cc1ccc(Oc2ncc(N3C(=O)NC(C)(C)C3=O)cn2)c2c1OCC21CC1 [Compound 1, 5,5-dimethyl-3-[2-(7-methylspiro[2H-benzofuran-3,1′-cyclopropane]-4-yl)oxypyrimidin-5-yl]imidazolidine-2,4-dione]	Neither compound was found to have a significant effect
did not potentiate	did not produce any notable shift	45.4±4	CC[C@@]1(C)NC(=O)N(c2cnc(Oc3ccc(C)c(OC(F)(F)F)c3)nc2)C1=O [Compound 2, (5R)-5-ethyl-5-methyl-3-[2-({4-methyl-3-[(trifluoromethyl)oxy]phenyl}oxy)-5-pyrimidinyl]-2,4-imidazolidinedione]	Neither compound was found to have a significant effect
did not potentiate	did not produce any notable shift	36±3	Cc1ccc(Oc2ccc(-n3c(C)n[nH]c3=O)cn2)c2c1OCC21CC1 [Compound 3, 5-methyl-4-{6-[(7-methylspiro[1-benzofuran-3,1′-cyclopropan]-4-yl)oxy]pyridin-3-yl}-2,4-dihydro-3H-1,2,4-triazol-3-one]	–
did not potentiate	did not produce any notable shift	50.0±4	CC[C@H]1NC(=O)N(c2ccc(Oc3ccc(C)c4c3C3(CC3)CO4)nc2)C1=O [Compound 4, (5R)-5-ethyl-3-[6-(7-methylspiro[2H-benzofuran-3,1′-cyclopropane]-4-yl)oxy-3-pyridyl]imidazolidine-2,4-dione]	–
